Results on two compounds are retold here after patent US9493466B2, “Treatment of cancer with TOR kinase inhibitors” (Signal Pharmaceuticals, LLC, priority 2011, dated 2016).

In one series the test system is U87MG-Luc cells. The experiment in a line: U87MG intracranial glioblastoma model. In kind it is in vivo, Nude mice. To be noted: up to 6 weeks. The method, then:
U87MG Intracranial Glioblastoma Model (Compound 1). An intracranial glioblastoma study was conducted with U87MG cells transfected with luciferase (U87-MG-Luc). Nude mice were inoculated intracranially with U87MG-Luc cells into the brain. Following inoculation of animals, the tumors were allowed to grow for 7 days. On day 7 following tumor cell inoculation, the mice were imaged using Xenogen imaging system. The mice having tumors with an average flux ranging between 6.29×10^7 and 1.59×10^8 photons/sec were pooled together and randomized into various treatment groups. Compound 1 was formulated in 0.5% CMC and 0.25% Tween 80 in water (as a suspension). The animals were orally administered vehicle (CMC-Tween) or Compound 1 once daily (QD) for up to 6 weeks. Doses of Compound 1 ranged between 2.5 and 20 mg/kg. The positive control Temozolomide (10 mg/kg, QD) was administered via intra peritoneal (IP) route. Temozolomide was formulated in 5% N-methylpyrrolidone, 45% PEG400 and 50% saline. The animals were imaged for bioluminescence once a week using Xenogen imaging system and monitored for survival. Statistical analysis was performed using a log-rank test between Compound-treated and vehicle-treated control groups.
U87MG Intracranial Glioblastoma Model (Compound 2). […] The animals were imaged for bioluminescence once a week using Xenogen imaging system and monitored for survival. […]

The test system of the next series is NHL cell lines. Nature of the series: Apoptosis assay for NHL lines (panel statement). The format is cell-based. To be noted: multiple NHL cell lines in vitro; FIG. 2. The method, then: Apoptosis Assay for NHL Lines. Prior to testing, cells were grown and expanded in culture flasks to provide sufficient amounts of starting material. Cells were then diluted to their desired densities and added directly to compound-spotted 384-well plates. Cells were allowed to grow for 24 hours in 5% CO2 at 37° C. The apoptotic response was assessed by quantifying the activities of caspase 3 and caspase 7 (Caspase 3/7-Glo) in treated cells and control cells at the 24-hour time point. All data was normalized and represented as a value relative to the DMSO-treated cells. Results were then expressed as CalX, which is the minimum compound concentration required to double the levels of caspase 3/7 relative to those of the DMSO-treated cells during their treatment period.

Another series has as its system KMS34. Nature of the series: Cell proliferation and viability assay for MM lines. The format is cell-based. To be noted: KMS34, 5 days, 7AAD FACS. Here is the method: (§1) Cell Proliferation and Viability Assay for MM Lines. Prior to use, cells were washed and maintained in medium for 5 days. Cells were seeded out at a density of 0.3×10^6 cells/mL in a 12-well plate and treated with Compound 1 or Compound 2 for 5 days. 7AAD detection fluorescence-activated cell sorting (FACS) flow cytometry was used in the analysis.

For the next series, the system named is RPMI. The description is as above. To be noted: 5 days, 7AAD FACS. The format is cell-based. Here is the method:
as §1

For the next series, the system named is OPM2. The series is described as above. In kind it is cell-based. To be noted: OPM2, 5 days, 7AAD FACS. Here is the method: as §1
In the next series the test system is LP-1. The description is as above. To be noted: LP-1, 5 days, 7AAD FACS. In kind it is cell-based. The method, then:
as §1

A further series concerns MM1.S. The series is described as above. The format is cell-based. To be noted: 5 days, 7AAD FACS. The method, then: as §1
Another series relates to H929. Described as above. The format is cell-based. To be noted: H929, 5 days, 7AAD FACS. Here is the method: as §1
A further series deals with CAG. Described as above. The format is cell-based. To be noted: 5 days, 7AAD FACS. Here is the method: as §1
The next series deals with DF15. The series is described as above. In kind it is cell-based. To be noted: DF15, 5 days, 7AAD FACS. The method, then:
as §1

The next series concerns U266. The series is described as above. The format is cell-based. To be noted: U266, 5 days, 7AAD FACS. Here is the method: as §1
Series [1] in a line: Phase 1/2 study Part A: pharmacokinetics. The format is in vivo, human. Here is the method:
During the first cycle only in Part A, each subject will be administered a single dose of Compound 1 (Day −1), followed by a 48-hour observation and PK sampling period, followed on Day 1 by daily uninterrupted dosing for 28 days (Cycle 1=30 days). In subsequent Part A cycles, subjects are treated in 28-day cycles with continuous dosing from Day 1 to 28. In Part B, subjects will receive continuous dosing for 28 days from the beginning—there is neither an initial observation period nor a 48-hour PK collection.

Setting [2] is: 120 h, read-out: IC50, Proliferation.
Where [3] appears, read: 120 h, read-out: IC50, Viability.
The mark [4] stands for this setting: Homo sapiens, 120 h, read-out: IC50, Viability.

Like-named read-outs stand apart in the source and are kept apart here.

On to `CCN1C(=O)CNc2ncc(-c3ccc(-c4nc[nH]n4)nc3C)nc21` [Compound 2, 1-ethyl-7-(2-methyl-6-(1H-1,2,4-triazol-3-yl)pyridin-3-yl)-3,4-dihydropyrazino[2,3-b]pyrazin-2(1H)-one], for which, in the series on U87MG-Luc cells (0.5 to 5 mg/kg QD oral, FIG. 16), the survival entry was “significantly prolonged the life”. For the same compound, in the series with NHL cell lines, the apoptosis induction result is “induce apoptosis”. Also, the IC50 was determined as 0.07 µM in the series on KMS34 (KMS-34, 120 h, read-out: IC50, Proliferation); 0.12 µM in the series on KMS34 (KMS-34, 120 h, read-out: IC50, Viability); 0.15 µM with RPMI (setting [2]); 0.45 µM in the series with RPMI (setting [3]); 0.37 µM with OPM2 (Homo sapiens, OPM-2, 120 h, read-out: IC50, Proliferation); 0.51 µM in the series with OPM2 (Homo sapiens, OPM-2, 120 h, read-out: IC50, Viability). For the same compound, the IC50 in the series on LP-1 (Homo sapiens, 120 h, read-out: IC50, Proliferation) was 0.16 µM; in the series on LP-1 (setting [4]) it was 0.83 µM; with MM1.S (setting [4]) it was 0.85 µM; with H929 (Homo sapiens, NCI-H929, 120 h, read-out: IC50, Proliferation), 0.13 µM; with H929 (Homo sapiens, NCI-H929, 120 h, read-out: IC50, Viability) it was 0.4 µM; in the series on CAG (setting [2]), 0.41 µM. In addition, the IC50 in the series with CAG (setting [3]) was found to be 1.5 µM; in the series on DF15 (setting [2]), 0.05 µM; in the series on DF15 (setting [3]), 0.57 µM; in the series on U266 (Homo sapiens, U-266, 120 h, read-out: IC50, Proliferation) it was 0.32 µM; in the series on U266 (Homo sapiens, U-266, 120 h, read-out: IC50, Viability), 4.29 µM.
In the case of `CO[C@H]1CC[C@H](N2C(=O)CNc3ncc(-c4ccc(C(C)(C)O)nc4)nc32)CC1` [Compound 1, 7-(6-(2-hydroxypropan-2-yl)pyridin-3-yl)-1-((1r,4r)-4-methoxycyclohexyl)-3,4-dihydropyrazino-[2,3-b]pyrazin-2(1H)-one], the “mean steady state Cmax” value in series [1] (45 mg, day 15) was determined as 0.485 µg/mL. The compound further came in with an AUC0-24 in [1] (45 mg, mean steady state) of 2371 ng^xhr/mL. For the same compound, the drug accumulation entry in series [1] (after 15 days of dosing) is “only minimal drug accumulation”. Moreover, in series [1] (dose levels of 30 mg and higher, estimate from preclinical xenograft models), the “exposures versus levels estimated to provide >50% inhibition of TORC1 (pS6) and TORC2 (pAKT) for at least 8 hours” value is listed as “exceeded”. The “drug exposure versus dose” value in series [1] (high intersubject variability) is given as “Dose proportional”. Further, the survival entry in the series on U87MG-Luc cells (2.5 to 20 mg/kg QD oral, FIG. 14) was “significantly prolonged the life”. Further, in the series on NHL cell lines, the apoptosis induction entry is “induce apoptosis”. Also, the IC50 in the series with KMS34 (read-out: IC50, Proliferation) is 0.1 µM; in the series with KMS34 (read-out: IC50, Viability), 0.42 µM; in the series with RPMI (read-out: IC50, Proliferation), 0.17 µM; in the series with RPMI (read-out: IC50, Viability), 1.1 µM; with OPM2 (read-out: IC50, Proliferation), 0.33 µM; in the series on OPM2 (read-out: IC50, Viability), 0.6 µM. Further, the IC50 was 0.22 µM in the series on LP-1 (read-out: IC50, Proliferation); 0.44 µM in the series on MM1.S (read-out: IC50, Proliferation); 1.01 µM with MM1.S (read-out: IC50, Viability); 0.19 µM with H929 (read-out: IC50, Proliferation); 0.73 µM with H929 (read-out: IC50, Viability); 0.8 µM in the series on CAG (read-out: IC50, Proliferation). Further, the IC50 came out at 2.6 µM with CAG (read-out: IC50, Viability); 0.1 µM in the series on DF15 (read-out: IC50, Proliferation); 0.85 µM in the series with DF15 (read-out: IC50, Viability); 0.56 µM in the series on U266 (read-out: IC50, Proliferation).
